In patent US11446287B2, “Compounds and methods for EP300 or CBP modulation and indications therefor” (Opna Immuno-Oncology SA, priority 2019, dated 2022):

target: T1, Recombinant human EP300 containing the bromodomain (EP300-BD (1040-1161)) (Homo sapiens, UniProt Q09472); assay: EP300 Alphascreen binding assay
T1 construct: Recombinant human EP300 bromodomain (EP300-BD (1040-1161)); made in house; host or cells: E. coli BL21-CodonPlus (DE3), modified pET vector
T1 sequence (Q09472 1040-1161): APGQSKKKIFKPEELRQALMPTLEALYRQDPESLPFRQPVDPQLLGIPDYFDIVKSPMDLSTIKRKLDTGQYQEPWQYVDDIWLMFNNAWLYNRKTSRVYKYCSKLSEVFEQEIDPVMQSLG
Procedure, shortened: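 Displacement of a biotinylated acetyl-K56 histone H3 peptide from the N-His bromodomain construct (1040-1161) measured by AlphaScreen proximity, beads at 7.5 μg/ml final, read 60 min after addition. Protein, peptide and compound first incubated 1 h at room temperature, pH 7.5 HEPES buffer; IC50 by four-parameter logistic fit.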

Structure (SMILES) | IC50 [nM]
Cc1noc(C)c1-c1cnc2c(c1)c(-c1ccc(C(=O)O)cc1OC(F)(F)F)cn2-c1ncccc1C(F)(F)F [P-0180, 4-(5-(3,5-dimethylisoxazol-4-yl)-1-(3-(trifluoromethyl)pyridin-2-yl)-1H-pyrrolo[2,3-b]pyridin-3-yl)-3-(trifluoromethoxy)benzoic acid] | 0.1 to 1000
COc1ccc(C(=O)O)cc1-c1c(C(F)(F)F)n([C@@H](C)c2ccccn2)c2cc(-c3c(C)noc3C)cnc12 [P-0239, (S)-3-(6-(3,5-dimethylisoxazol-4-yl)-1-(1-(pyridin-2-yl)ethyl)-2-(trifluoromethyl)-1H-pyrrolo[3,2-b]pyridin-3-yl)-4-methoxybenzoic acid] | 0.1 to 1000
CCOc1cc(C(=O)O)cc(OCC)c1-n1cc(C2=CCC(F)(F)CC2)c2ncc(-c3c(C)noc3C)cc21 [P-0208, 4-(3-(4,4-difluorocyclohex-1-en-1-yl)-6-(3,5-dimethylisoxazol-4-yl)-1H-pyrrolo[3,2-b]pyridin-1-yl)-3,5-diethoxybenzoic acid] | 0.1 to 1000
CCOc1cc(C(=O)O)cc(OCC)c1-n1cc(-c2cncc(Cl)c2)c2ncc(-c3c(C)noc3C)cc21 [P-0193, 4-(3-(5-chloropyridin-3-yl)-6-(3,5-dimethylisoxazol-4-yl)-1H-pyrrolo[3,2-b]pyridin-1-yl)-3,5-diethoxybenzoic acid] | 0.1 to 1000
CCOc1cc(C(=O)O)cc(OCC)c1-n1cc(-c2cccnc2)c2ncc(-c3c(C)noc3C)cc21 [P-0173, 4-(6-(3,5-dimethylisoxazol-4-yl)-3-(pyridin-3-yl)-1H-pyrrolo[3,2-b]pyridin-1-yl)-3,5-diethoxybenzoic acid] | 0.1 to 1000
Cc1noc(C)c1-c1cnc2c(c1)c(-c1ccnc(C(=O)O)c1)cn2C(c1ccccn1)C1CCCC1 (centres unmarked) [P-0017, 4-(1-(cyclopentyl(pyridin-2-yl)methyl)-5-(3,5-dimethylisoxazol-4-yl)-1H-pyrrolo[2,3-b]pyridin-3-yl)picolinic acid] | 0.1 to 1000
CCOc1cc(C(=O)O)cc(OCC)c1-n1cc(-c2ccnc(F)c2)c2ncc(-c3c(C)noc3C)cc21 [P-0222, 4-(6-(3,5-dimethylisoxazol-4-yl)-3-(2-fluoropyridin-4-yl)-1H-pyrrolo[3,2-b]pyridin-1-yl)-3,5-diethoxybenzoic acid] | 0.1 to 1000
Cc1noc(C)c1-c1cnc2c(c1)c(-c1ccncc1)cn2C(c1ccccn1)C1CCCC1 (centres unmarked) [P-0019, 4-(1-(cyclopentyl(pyridin-2-yl)methyl)-3-(pyridin-4-yl)-1H-pyrrolo[2,3-b]pyridin-5-yl)-3,5-dimethylisoxazole] | 1000 to 8000
Cc1noc(C)c1-c1cnc2c(c1)c(-c1ccc(C(=O)O)cc1C#CC1CC1)cn2[C@@H](C)c1ccccn1 [P-0178, (S)-3-(cyclopropylethynyl)-4-(5-(3,5-dimethylisoxazol-4-yl)-1-(1-(pyridin-2-yl)ethyl)-1H-pyrrolo[2,3-b]pyridin-3-yl)benzoic acid] | 1000 to 8000
CCOc1cc(C(=O)O)cc(OCC)c1-n1cc(-c2ccc(C3CC3)nc2)c2ncc(-c3c(C)noc3C)cc21 [P-0192, 4-(3-(6-cyclopropylpyridin-3-yl)-6-(3,5-dimethylisoxazol-4-yl)-1H-pyrrolo[3,2-b]pyridin-1-yl)-3,5-diethoxybenzoic acid] | 0.1 to 1000
CCOc1cc(C(=O)O)cc(OCC)c1-n1cc(-c2ccc(OC)cc2F)c2ncc(-c3c(C)noc3C)cc21 [P-0194, 4-(6-(3,5-dimethylisoxazol-4-yl)-3-(2-fluoro-4-methoxyphenyl)-1H-pyrrolo[3,2-b]pyridin-1-yl)-3,5-diethoxybenzoic acid] | 0.1 to 1000
Cc1noc(C)c1-c1cnc2c(c1)c(-c1cccc(CC(=O)O)c1)cn2C(c1ccccn1)C1CCCC1 (centres unmarked) [P-0018, 2-(3-(1-(cyclopentyl(pyridin-2-yl)methyl)-5-(3,5-dimethylisoxazol-4-yl)-1H-pyrrolo[2,3-b]pyridin-3-yl)phenyl)acetic acid] | 0.1 to 1000
CCOc1cc(C(=O)O)cc(OCC)c1-n1cc(-c2ccc(C#N)cc2F)c2ncc(-c3c(C)noc3C)cc21 [P-0217, 4-(3-(4-cyano-2-fluorophenyl)-6-(3,5-dimethylisoxazol-4-yl)-1H-pyrrolo[3,2-b]pyridin-1-yl)-3,5-diethoxybenzoic acid] | 0.1 to 1000
Cc1noc(C)c1-c1cnc2c(c1)c(-c1ccc(C(=O)O)cc1OC(F)(F)F)cn2CCN1CCOCC1 [P-0191, 4-(5-(3,5-dimethylisoxazol-4-yl)-1-(2-morpholinoethyl)-1H-pyrrolo[2,3-b]pyridin-3-yl)-3-(trifluoromethoxy)benzoic acid] | 0.1 to 1000
Cc1cc(C(=O)O)ccc1-c1c(C(F)(F)F)n([C@@H](C)c2ccccn2)c2cc(-c3c(C)noc3C)cnc12 [P-0235, (S)-4-(6-(3,5-dimethylisoxazol-4-yl)-1-(1-(pyridin-2-yl)ethyl)-2-(trifluoromethyl)-1H-pyrrolo[3,2-b]pyridin-3-yl)-3-methylbenzoic acid] | 0.1 to 1000
Cc1noc(C)c1-c1cnc2c(-c3ccc(F)cc3F)cn(-c3ccc(C(=O)O)cc3OC(F)(F)F)c2c1 [P-0229, 4-(3-(2,4-difluorophenyl)-6-(3,5-dimethylisoxazol-4-yl)-1H-pyrrolo[3,2-b]pyridin-1-yl)-3-(trifluoromethoxy)benzoic acid] | 0.1 to 1000
Cc1noc(C)c1-c1cnc2c(c1)c(-c1ccc(C(=O)O)cc1OC1CCC1)cn2[C@@H](C)c1ccccn1 [P-0179, (S)-3-cyclobutoxy-4-(5-(3,5-dimethylisoxazol-4-yl)-1-(1-(pyridin-2-yl)ethyl)-1H-pyrrolo[2,3-b]pyridin-3-yl)benzoic acid] | 0.1 to 1000
Cc1noc(C)c1-c1cnc2c(c1)c(-c1ccc(C(=O)O)cc1OC(F)(F)F)cn2-c1ncccc1Cl [P-0183, 4-(1-(3-chloropyridin-2-yl)-5-(3,5-dimethylisoxazol-4-yl)-1H-pyrrolo[2,3-b]pyridin-3-yl)-3-(trifluoromethoxy)benzoic acid] | 0.1 to 1000
CCOc1cc(C(=O)O)cc(OCC)c1-n1cc(-c2ccc(C(=O)NC3CC3)cc2)c2ncc(-c3c(C)noc3C)cc21 [P-0218, 4-(3-(4-(cyclopropylcarbamoyl)phenyl)-6-(3,5-dimethylisoxazol-4-yl)-1H-pyrrolo[3,2-b]pyridin-1-yl)-3,5-diethoxybenzoic acid] | 0.1 to 1000
Cc1noc(C)c1-c1cnc2c(c1)c(-c1ccc(C(=O)O)cc1OCC(F)(F)F)cn2C(C1CC1)C1CC1 [P-0214, 4-(1-(dicyclopropylmethyl)-5-(3,5-dimethylisoxazol-4-yl)-1H-pyrrolo[2,3-b]pyridin-3-yl)-3-(2,2,2-trifluoroethoxy)benzoic acid] | 0.1 to 1000
Cc1noc(C)c1-c1cnc2c(-c3cn(C)nc3C3CC3)c(C(F)(F)F)n([C@@H](C)c3ccccn3)c2c1 [P-0237, (S)-4-(3-(3-cyclopropyl-1-methyl-1H-pyrazol-4-yl)-1-(1-(pyridin-2-yl)ethyl)-2-(trifluoromethyl)-1H-pyrrolo[3,2-b]pyridin-6-yl)-3,5-dimethylisoxazole] | 0.1 to 1000
CCOc1cccc(Cl)c1-n1cc(-c2ccccc2)c2ncc(-c3c(C)noc3C)cc21 [P-0224, 4-(1-(2-chloro-6-ethoxyphenyl)-3-phenyl-1H-pyrrolo[3,2-b]pyridin-6-yl)-3,5-dimethylisoxazole] | 1000 to 8000
Cc1noc(C)c1-c1cnc2c(c1)c(-c1ccc(C(=O)O)cc1)cn2C(C)c1ccc(F)cn1 (centres unmarked) [P-0014, 4-(5-(3,5-dimethylisoxazol-4-yl)-1-(1-(5-fluoropyridin-2-yl)ethyl)-1H-pyrrolo[2,3-b]pyridin-3-yl)benzoic acid] | 0.1 to 1000
